One data set in a line: in vitro. The following applies: female, Balb/c, mouse, serum.
The target of data set [1] is T1, hOT7T175 (Homo sapiens, UniProt Q969F8, L364H). The experiment in a line: hOT7T175 receptor binding activity: binding inhibition of Cy-5-labeled metastin (40-54) on hOT7T175-expressed CHO cells. More on the design: expressed in transfected cells; host or cells: CHO cells.
In data set [2] the target is T1, hOT7T175. The experiment in a line: Intracellular Ca ion level-increasing activity using FLIPR in hOT7T175/CHO. It counts as cell-based. Also noted: expressed in transfected cells; host or cells: CHO/dhfr- cells, obtained from ATCC. The note with it: relative, Metastin (1-54) = 1.

Numbered stars: 1 amine (or outer) side, 2 acyl side, 3 side chain; on linkers, the order of the positions; unused ones are H or OH. Square brackets hold non-standard residues; d marks the D form. Peptide text beside a SMILES is read from it. * marks the point of attachment. NαAmidinoTrp = N=C(N)N[C@@H](Cc1c[nH]c2ccccc12)C(=O)*; X11 = O=C(CNC(=S)[C@H](Cc1ccccc1)N[*:1])[*:2]; Cyclohexanecarbonyl = O=C(C1CCCCC1)*; Arg(Me) = CNC(=N)NCCC[C@H](N)C(=O)O; 2Pal = N[C@@H](Cc1ccccn1)C(=O)O; 4Pal = N[C@@H](Cc1ccncc1)C(=O)O; Cha = N[C@@H](CC1CCCCC1)C(=O)O; X6 = O=C(c1c[nH]c2ccccc12)*; azaGly = NNC(=O)O

Broadly, the half-life is how long it takes for the measured level to halve. The IC50 is the concentration that gives 50% inhibition. High values mean lower potency, low ones higher potency.

T1 sequence (Q969F8 whole entry L364H): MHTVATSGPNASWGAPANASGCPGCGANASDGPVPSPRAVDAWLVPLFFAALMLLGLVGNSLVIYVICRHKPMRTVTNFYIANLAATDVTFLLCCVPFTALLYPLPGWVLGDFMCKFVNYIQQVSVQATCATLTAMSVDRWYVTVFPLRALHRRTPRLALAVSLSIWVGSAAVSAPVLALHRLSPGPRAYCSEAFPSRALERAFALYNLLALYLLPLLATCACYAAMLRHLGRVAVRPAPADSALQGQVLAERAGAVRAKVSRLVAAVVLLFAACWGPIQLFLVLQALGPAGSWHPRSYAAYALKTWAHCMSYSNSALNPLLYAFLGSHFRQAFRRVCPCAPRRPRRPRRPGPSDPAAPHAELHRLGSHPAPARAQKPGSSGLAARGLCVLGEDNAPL
Description for in vitro: Blood was drawn from Balb/c mice (female) of 8 weeks old, settled at 37° C. for 30 minutes and centrifuged at 13000 rpm for 10 minutes to give the serum as the supernatant. The serum thus obtained was frozen-stored at −80° C.
The stability test was performed by addition of 5 nmol of Compound (5 μL of aqueous solution) to 45 μL of serum and then settlement of the mixture at 37° C. The settlement was made at 3 points of time, including 2, 10 and 30 minutes. The sample after the settlement was boiled for 3 minutes and cooled on an ice bath. After 200 μL of acetonitrile/water (3/1) was added to the sample, the mixture was ultrasonicated for 5 minutes and then centrifuged at 5000 rpm for 1 minute. After 150 μL of the supernatant was diluted with 250 μL of distilled water, insoluble matters were removed by filtration through a filter having a pore size of 0.45 μm and 200 μL of the filtrate was applied on HPLC (220 nm) to determine the peak area of Compound. A ratio of the peak area to the area when Compound was treated for 0 minute under the same conditions was calculated as a mean value in 4 respective runs to determine the residual ratio. Next, by taking the calculated residual ratio on the ordinate and the time on the abscissa, a graph was prepared and approximated by an exponential function.
The preparative HPLC used was the LC-VP series manufactured by Shimadzu Corporation and Wakosil-II 5C18 HG (4.6 mm×100 mm) manufactured by Wako Pure Chemical Industries, Ltd. was used as the column. Eluant A (0.1% TFA-containing water) and eluant B (0.1% TFA-containing acetonitrile) were used as eluants. Analysis was performed by linear density gradient elution (25 minutes) at a flow rate of 1.0 ml/min. using eluants A/B: 100/0-0/50.

In the data set “in vitro”, `CNC(N)=NCCC[C@H](NC(=O)[C@H](CC(C)C)NC(=O)CNC(=O)[C@H](Cc1ccccc1)NC(=O)[C@H](CO)NC(=O)[C@H](CC(N)=O)NC(=O)[C@H](Cc1c[nH]c2ccccc12)NC(=O)[C@H](CC(N)=O)NC(=O)[C@@H](N)Cc1ccc(O)cc1)C(=O)N[C@@H](Cc1ccccc1)C(N)=O` [Compound No. 82] gave a half-life at 100 µM of 1.8 min.
Same read-out and setting: then `CNC(N)=NCCC[C@H](NC(=O)[C@H](CC(C)C)NC(=O)CNC(=S)[C@H](Cc1ccccc1)NC(=O)[C@H](CO)NC(=O)[C@H](CC(N)=O)NC(=O)[C@H](Cc1c[nH]c2ccccc12)NC(=O)[C@H](CC(N)=O)NC(=O)[C@H](N)Cc1ccc(O)cc1)C(=O)N[C@@H](Cc1ccccc1)C(N)=O` [Compound No. 296, D-Tyr-Asn-Trp-Asn-Ser-PheΨ(CSNH)Gly-Leu-Arg(Me)-Phe-NH2] (H-[dY]NWNS[X11]L[Arg(Me)]F-NH2), with 47.2 min.
Take `CNC(N)=NCCC[C@H](NC(=O)[C@H](CC(C)C)NC(=O)NNC(=O)[C@H](Cc1ccccc1)NC(=O)[C@H](CO)NC(=O)[C@H](CC(N)=O)NC(=O)[C@H](Cc1ccncc1)NC(=O)[C@H](CC(N)=O)NC(=O)[C@H](N)Cc1ccc(O)cc1)C(=O)N[C@@H](Cc1ccccc1)C(N)=O` [Compound No. 286, D-Tyr-Asn-Pya(4)-Asn-Ser-Phe-AzaGly-Leu-Arg(Me)-Phe-NH2] (H-[dY]N[4Pal]NSF[azaGly]L[Arg(Me)]F-NH2): in the data set “in vitro”, the half-life at 100 µM is 57.5 min. In addition, the IC50 at hOT7T175 [1] turned out to be 17 nM.
In the case of `CC[C@H](C)[C@H](NC(=O)[C@H](CCC(N)=O)NC(=O)[C@H](CCCNC(=N)N)NC(=O)[C@H](CO)NC(=O)[C@H](Cc1c[nH]cn1)NC(=O)[C@@H]1CCCN1C(=O)[C@H](C)NC(=O)[C@H](CO)NC(=O)[C@H](CC(C)C)NC(=O)CNC(=O)[C@@H]1CCCN1C(=O)[C@H](CCC(N)=O)NC(=O)[C@H](CCC(N)=O)NC(=O)[C@H](CCCNC(=N)N)NC(=O)[C@H](CO)NC(=O)CNC(=O)[C@H](CO)NC(=O)[C@H](CO)NC(=O)[C@H](CCC(=O)O)NC(=O)[C@@H]1CCCN1C(=O)[C@@H]1CCCN1C(=O)[C@@H]1CCCN1C(=O)[C@H](CO)NC(=O)[C@H](CC(C)C)NC(=O)[C@H](CO)NC(=O)[C@@H](NC(=O)CN)[C@@H](C)O)C(=O)N1CCC[C@H]1C(=O)N[C@@H](C)C(=O)N1CCC[C@H]1C(=O)N[C@@H](CCC(N)=O)C(=O)NCC(=O)N[C@@H](C)C(=O)N[C@H](C(=O)N[C@@H](CC(C)C)C(=O)N[C@H](C(=O)N[C@@H](CCC(N)=O)C(=O)N[C@@H](CCCNC(=N)N)C(=O)N[C@@H](CCC(=O)O)C(=O)N[C@@H](CCCCN)C(=O)N[C@@H](CC(=O)O)C(=O)N[C@@H](CC(C)C)C(=O)N1CCC[C@H]1C(=O)N[C@@H](CC(N)=O)C(=O)N[C@@H](Cc1ccc(O)cc1)C(=O)N[C@@H](CC(N)=O)C(=O)N[C@@H](Cc1c[nH]c2ccccc12)C(=O)N[C@@H](CC(N)=O)C(=O)N[C@@H](CO)C(=O)N[C@@H](Cc1ccccc1)C(=O)NCC(=O)N[C@@H](CC(C)C)C(=O)N[C@@H](CCCNC(=N)N)C(=O)N[C@@H](Cc1ccccc1)C(N)=O)C(C)C)C(C)C` [Compound No. 1, Metastin, reference compound], in “in vitro”, the half-life at 100 µM was determined as 22.5 min.
As for `CC(C)C[C@H](NC(=O)CNC(=O)[C@H](Cc1ccccc1)NC(=O)[C@H](CO)NC(=O)[C@H](CC(N)=O)NC(=O)[C@H](Cc1c[nH]c2ccccc12)NC(=O)[C@H](CC(N)=O)NC(=O)[C@@H](N)Cc1ccc(O)cc1)C(=O)N[C@@H](CCCNC(=N)N)C(=O)N[C@@H](Cc1c[nH]c2ccccc12)C(N)=O` [Compound No. 134] (H-YNWNSFGLRW-NH2), the half-life at 100 µM in “in vitro” was found to be 2.4 min. For the same compound, the concentration for half-maximal inhibition (IC50) at hOT7T175 [1] worked out at 110 nM. The “Specific Activity (intracellular Ca ion level-increasing activity)” value on hOT7T175 [2] is 30.
Regarding `CNC(=N)NCCC[C@H](NC(=O)[C@H](CC(C)C)NC(=O)CNC[C@H](Cc1ccccc1)NC(=O)[C@H](CO)NC(=O)[C@H](CC(N)=O)NC(=O)[C@H](Cc1c[nH]c2ccccc12)NC(=O)[C@H](CC(N)=O)NC(=O)[C@H](N)Cc1ccc(O)cc1)C(=O)N[C@@H](Cc1ccccc1)C(N)=O` [Compound No. 308, D-Tyr-Asn-Trp-Asn-Ser-PheΨ(CH2NH)Gly-Leu-Arg(Me)-Phe-NH2], the half-life at 100 µM in “in vitro” is 13.2 min. In addition, on hOT7T175 [2], the “Specific Activity (intracellular Ca ion level-increasing activity)” value is given as 2.
Take `CC(C)C[C@H](NC(=O)CNC(=O)[C@H](Cc1ccccc1)NC(=O)[C@H](CO)NC(=O)[C@H](CC(N)=O)NC(=O)[C@H](Cc1c[nH]c2ccccc12)NC(=O)[C@H](CC(N)=O)NC(=O)[C@@H](N)Cc1ccc(O)cc1)C(=O)N[C@@H](CCCNC(=N)N)C(=O)N[C@@H](Cc1ccc(Cl)c(Cl)c1)C(N)=O` [Compound No. 199]: the IC50 at hOT7T175 [1] came out at 470 nM. In addition, the “Specific Activity (intracellular Ca ion level-increasing activity)” value at hOT7T175 [2] stood at 3.
On the same counts, the results for `CC[C@H](C)[C@H](NC(=O)[C@H](N)Cc1ccc(O)cc1)C(=O)N[C@@H](CC(N)=O)C(=O)N[C@@H](CO)C(=O)N[C@@H](Cc1ccccc1)C(=O)NCC(=O)N[C@@H](CC(C)C)C(=O)N[C@@H](CCCNC(=N)NC)C(=O)N[C@@H](Cc1ccccc1)C(N)=O` [Compound No. 228] (H-[dY]INSFGL[Arg(Me)]F-NH2) are 40 nM and 5.
On the same counts, the results for `CC(C)C[C@H](NC(=O)CNC(=O)[C@H](CC1CCCCC1)NC(=O)[C@H](CO)NC(=O)[C@H](CC(N)=O)NC(=O)[C@H](Cc1c[nH]c2ccccc12)NC(=O)[C@H](CC(N)=O)NC(=O)[C@@H](N)Cc1ccc(O)cc1)C(=O)N[C@@H](CCCNC(=N)N)C(=O)N[C@@H](Cc1ccccc1)C(N)=O` [Compound No. 156, Tyr-Asn-Trp-Asn-Ser-Cha-Gly-Leu-Arg-Phe-NH2] (H-YNWNS[Cha]GLRF-NH2) are 49 nM and 2.
In turn, `CNC(=N)NCCC[C@H](NC(=O)[C@H](CC(C)C)NC(=O)NNC(=O)[C@H](Cc1ccccc1)NC(=O)[C@H](CO)NC(=O)[C@H](CC(N)=O)NC(=O)[C@@H](Cc1c[nH]c2ccccc12)NC(=O)[C@H](CC(N)=O)NC(=O)[C@H](N)Cc1ccc(O)cc1)C(=O)N[C@@H](Cc1ccccc1)C(N)=O` [Compound No. 236, D-Tyr-Asn-D-Trp-Asn-Ser-Phe-AzaGly-Leu-Arg(Me)-Phe-NH2] came in with an IC50 at hOT7T175 [1] of 42 nM. For the same compound, the “Specific Activity (intracellular Ca ion level-increasing activity)” value at hOT7T175 [2] was 2.
For `CNC(=N)NCCC[C@H](NC(=O)[C@H](CC(C)C)NC(=O)NNC(=O)[C@H](Cc1ccccc1)NC(=O)[C@H](CO)NC(=O)[C@H](CC(N)=O)NC(=O)[C@H](Cc1c[nH]c2ccccc12)NC(=N)N)C(=O)N[C@@H](Cc1ccccc1)C(N)=O` [Compound No. 273, Amidino-Trp-Asn-Ser-Phe-AzaGly-Leu-Arg(Me)-Phe-NH2] (NαAmidinoTrp-NSF[azaGly]L[Arg(Me)]F-NH2) the same measures were 300 nM and 5.
For `CNC(=N)NCCC[C@H](NC(=O)[C@H](CC(C)C)NC(=O)CNC(=O)[C@H](Cc1ccccn1)NC(=O)[C@H](CO)NC(=O)[C@H](CC(N)=O)NC(=O)[C@H](Cc1c[nH]c2ccccc12)NC(=O)[C@H](CC(N)=O)NC(=O)[C@H](N)Cc1ccc(O)cc1)C(=O)N[C@@H](Cc1ccccc1)C(N)=O` [Compound No. 281, D-Tyr-Asn-Trp-Asn-Ser-Pya(2)-Gly-Leu-Arg(Me)-Phe-NH2] (H-[dY]NWNS[2Pal]GL[Arg(Me)]F-NH2) the same measures were 230 nM and “½”.
Turning to `CC(C)C[C@H](NC(=O)CNC(=O)[C@H](Cc1ccccc1)NC(=O)[C@H](CO)NC(=O)[C@H](CC(N)=O)NC(=O)[C@H](Cc1c[nH]c2ccccc12)NC(=O)[C@H](CC(N)=O)NC(=O)[C@@H](N)Cc1ccc(O)cc1)C(=O)N[C@@H](CCCCNC(=N)N)C(=O)N[C@@H](Cc1ccccc1)C(N)=O` [Compound No. 97], the concentration for half-maximal inhibition (IC50) on hOT7T175 [1] is 370 nM. Further, the “Specific Activity (intracellular Ca ion level-increasing activity)” value on hOT7T175 [2] is 10.
On the same counts, the results for `CC(C)C[C@H](NC(=O)CNC(=O)[C@H](Cc1ccccc1)NC(=O)[C@H](CO)NC(=O)[C@H](CC(N)=O)NC(=O)[C@H](Cc1c[nH]c2ccccc12)NC(=O)[C@H](CC(N)=O)NC(=O)[C@@H](N)Cc1ccc(O)cc1)C(=O)N[C@@H](CCCNC(=N)N)C(=O)N[C@@H](Cc1ccc(N)cc1)C(N)=O` [Compound No. 131] are 120 nM and 3.
On the same counts, the results for `CNC(=N)NCCC[C@H](NC(=O)[C@H](CC(C)C)NC(=O)NNC(=O)[C@H](Cc1ccccc1)NC(=O)[C@H](CO)NC(=O)[C@H](CC(N)=O)NC(=O)c1c[nH]c2ccccc12)C(=O)N[C@@H](Cc1ccccc1)C(N)=O` [Compound No. 265, Indole-3-carbonyl-Asn-Ser-Phe-AzaGly-Leu-Arg(Me)-Phe-NH2] (X6-NSF[azaGly]L[Arg(Me)]F-NH2) are 95 nM and 3.
For `CNC(=N)NCCC[C@H](NC(=O)[C@H](CC(C)C)NC(=O)NNC(=O)[C@H](Cc1ccccc1)NC(=O)[C@H](CO)NC(=O)[C@H](CC(N)=O)NC(=O)C1CCCCC1)C(=O)N[C@@H](Cc1ccccc1)C(N)=O` [Compound No. 278, Cyclohexanecarbonyl-Asn-Ser-Phe-AzaGly-Leu-Arg(Me)-Phe-NH2] (Cyclohexanecarbonyl-NSF[azaGly]L[Arg(Me)]F-NH2) the same measures were 110 nM and 2.
`CC(C)C[C@H](NC(=O)CNC(=O)[C@H](Cc1ccccc1)NC(=O)[C@H](CO)NC(=O)[C@H](CC(N)=O)NC(=O)[C@H](Cc1c[nH]c2ccccc12)NC(=O)[C@H](CC(N)=O)NC(=O)[C@@H](N)Cc1ccc(O)cc1)C(=O)N[C@@H](CCCNC(=N)N)C(=O)N[C@@H](Cc1c(F)c(F)c(F)c(F)c1F)C(N)=O` [Compound No. 111] returned an IC50 on hOT7T175 [1] of 140 nM. Moreover, on hOT7T175 [2], the “Specific Activity (intracellular Ca ion level-increasing activity)” value is 3.

These data come from US8361968B2 (Takeda Pharmaceutical Company Limited, priority 2002, dated 2013).
